Earlier results as cited in PMC7395068, “The evolution of strategies to minimise the risk of human drug-induced liver injury (DILI) in drug discovery and development” (Archives of Toxicology, 2020).
Read-outs that look alike come from different tables or passages of the source.

How the values were obtained:
[1] = test system: isolated mouse liver mitochondria; details: In vitro Assay; ref Porceddu 2012; cited from earlier work
[2] = cited from earlier work
[3] = cited from earlier work; remark: listed apart in the source
[4] = cited from earlier work; remark: listed apart in the source
[5] = test system: THLE or HepG2 cells, isolated mitochondria, BSEP; details: cited from earlier work
HepG2 cells [6] = details: In vitro Assay; ref Persson 2013; cited from earlier work
HepG2 cells [7] = details: In vitro Assay; ref O'Brien 2006; cited from earlier work

For `CS(=O)(=O)OCCCCOS(C)(=O)=O` [busulfan], the “in vitro data EC2<=1x Cmax” value [1] is listed as “+VE”, the “in vitro data EC20<=2uM” value [1] is listed as “-VE” and the “DILI +VE (5-8), DILI -VE (-4)” value ([2]; ref Chen 2016) is listed as “+VE”. The DILI severity category ([2]; ref Chen 2016) was “vMost-DILI-Concern”, the “DILI Score (FDA) (1-8)” value ([3]; ref Chen 2011) was 8 and the “In vivo DILI” value ([4]; […]) was “+VE”. The “In vivo DILI” value ([4]; ref Porceddu 2012) was “+VE”.
For `CC[C@@H](CO)NCCN[C@@H](CC)CO` [ethambutol], the “Partition Hybrid HRM Score” value ([5]; In vitro Assay, ref Aleo 2019) is listed as “-VE”, the “Ro2 Hybrid HRM Score” value ([5]; In vitro Assay, ref Aleo 2019) is listed as “-VE” and the “DILI +VE (5-8), DILI -VE (-4)” value ([2]; ref Chen 2016) is listed as “+VE”. The DILI severity category ([2]; ref Chen 2016) was “vMost-DILI-Concern”, the “DILI Score (FDA) (1-8)” value ([3]; ref Chen 2011) was 8 and the “In vivo DILI” value ([4]; ref Aleo 2019) was “+VE”.
For `CCc1cccc2c3c([nH]c12)C(CC)(CC(=O)O)OCC3` (stereo not drawn) [etodolac], the “Ro2 Hybrid HRM Score” value ([5]; In vitro Assay, ref Aleo 2019) is given as “+VE”, the “DILI +VE (5-8), DILI -VE (-4)” value ([2]; ref Chen 2016) is given as “+VE” and the DILI severity category ([2]; ref Chen 2016) is given as “vMost-DILI-Concern”. For the same compound, the “DILI Score (FDA) (1-8)” value ([3]; ref Chen 2011) was 8 and the “In vivo DILI” value ([4]; ref Aleo 2019) was “+VE”.
In the case of `CC(C(=O)O)c1cccc(Oc2ccccc2)c1` (stereo not drawn) [fenoprofen], the “Partition Hybrid HRM Score” value ([5]; In vitro Assay, ref Aleo 2019) is given as “+VE”, the “Ro2 Hybrid HRM Score” value ([5]; In vitro Assay, ref Aleo 2019) is given as “+VE” and the “DILI +VE (5-8), DILI -VE (-4)” value ([2]; ref Chen 2016) is given as “+VE”. The DILI severity category ([2]; ref Chen 2016) was “vMost-DILI-Concern”, the “DILI Score (FDA) (1-8)” value ([3]; ref Chen 2011) was 8 and the “In vivo DILI” value ([4]; ref Aleo 2019) was “+VE”.
For `CN(C)c1ccc(O)c2c1C[C@H]1C[C@H]3[C@H](N(C)C)C(O)=C(C(N)=O)C(=O)[C@@]3(O)C(O)=C1C2=O` [minocycline], the “Ro2 Hybrid HRM Score” value [5] is given as “+VE”, the Cluser analysis (HepG2 cells [6]) is given as “-VE” and the “Structural based (HCI)” value (HepG2 cells [6]) is given as “-VE”. For the same compound, the “Structural based (HCI)” value (HepG2 cells [7]) was “+VE”, the “DILI +VE (5-8), DILI -VE (-4)” value ([2]; in vivo) was “+VE” and the DILI severity category ([2]; in vivo) was “vMost-DILI-Concern”. For the same compound, the “DILI Score (FDA) (1-8)” value ([3]; in vivo) was 2 and the “In vivo DILI” value ([4]; in vivo) was “+VE”.
For `CNC(=C[N+](=O)[O-])NCCSCc1csc(CN(C)C)n1` [nizatidine], the “Partition Hybrid HRM Score” value ([5]; In vitro Assay, ref Aleo 2019) is given as “-VE”, the “Ro2 Hybrid HRM Score” value ([5]; In vitro Assay, ref Aleo 2019) is given as “-VE” and the “Structural based (HCI)” value (HepG2 cells [7]) is given as “+VE (lowest HCI endpoint IC50 (or in the absence of dose–response < 100 µM) < 30 × total human plasma exposure levels (Cmax.tot))”. For the same compound, the “DILI +VE (5-8), DILI -VE (-4)” value ([2]; ref Chen 2016) was “+VE”, the DILI severity category ([2]; ref Chen 2016) was “vLess-DILI-Concern” and the “DILI Score (FDA) (1-8)” value ([3]; ref Chen 2011) was 5. For the same compound, the “In vivo DILI” value ([4]; ref Aleo 2019) was “+VE” and the “In vivo DILI” value ([4]; ref O'Brien 2006) was “+VE”.
For `CCCCCCCCCCC[C@@H](C[C@@H]1OC(=O)[C@H]1CCCCCC)OC(=O)[C@H](CC(C)C)NC=O` [orlistat], the “Partition Hybrid HRM Score” value ([5]; In vitro Assay, ref Aleo 2019) is given as “+VE”, the “Ro2 Hybrid HRM Score” value ([5]; In vitro Assay, ref Aleo 2019) is given as “+VE” and the “DILI +VE (5-8), DILI -VE (-4)” value ([2]; ref Chen 2016) is given as “+VE”. For the same compound, the DILI severity category ([2]; ref Chen 2016) was “vMost-DILI-Concern”, the “DILI Score (FDA) (1-8)” value ([3]; ref Chen 2011) was 8 and the “In vivo DILI” value ([4]; ref Aleo 2019) was “+VE”.
For `CCOC(=O)C1=C[C@@H](OC(CC)CC)[C@H](NC(C)=O)[C@@H](N)C1` [oseltamivir], the “Partition Hybrid HRM Score, In vitro Assay” value ([5]; Partition hybrid, ref Aleo 2019) is given as “+VE”, the “Ro2 Hybrid HRM Score, In vitro Assay” value ([5]; Rule of Two hybrid, ref Aleo 2019) is given as “-VE” and the DILI severity category ([2]; LTKB DILIrank category, ref Chen 2016) is given as “Ambiguous DILI-concern”. For the same compound, the “DILI +VE (5-8), DILI -VE (-4)” value ([2]; binary DILI call, ref Chen 2016) was “-VE” and the “DILI Score (FDA) (1-8)” value ([3]; FDA drug labelling score, ref Chen 2011) was 3.
For `C=CC[C@@H]1/C=C(\C)C[C@H](C)C[C@H](OC)[C@H]2O[C@@](O)(C(=O)C(=O)N3CCCC[C@H]3C(=O)O[C@H](/C(C)=C/[C@@H]3CC[C@@H](O)[C@H](OC)C3)[C@H](C)[C@@H](O)CC1=O)[C@H](C)C[C@@H]2OC` [tacrolimus], the “Partition Hybrid HRM Score” value ([5]; In vitro Assay, ref Aleo 2019) is given as “-VE”, the “Ro2 Hybrid HRM Score” value ([5]; In vitro Assay, ref Aleo 2019) is given as “-VE” and the “DILI +VE (5-8), DILI -VE (-4)” value ([2]; ref Chen 2016) is given as “+VE”. The DILI severity category ([2]; ref Chen 2016) was “vLess-DILI-Concern”, the “DILI Score (FDA) (1-8)” value ([3]; ref Chen 2011) was 5 and the “In vivo DILI” value ([4]; ref Aleo 2019) was “+VE”.
For `CCC[C@@]1(CCc2ccccc2)CC(O)=C([C@H](CC)c2cccc(NS(=O)(=O)c3ccc(C(F)(F)F)cn3)c2)C(=O)O1` [tipranavir], the “Partition Hybrid HRM Score” value ([5]; In vitro Assay, ref Aleo 2019) is listed as “+VE”, the “Ro2 Hybrid HRM Score” value ([5]; In vitro Assay, ref Aleo 2019) is listed as “+VE” and the “DILI +VE (5-8), DILI -VE (-4)” value ([2]; ref Chen 2016) is listed as “+VE”. For the same compound, the DILI severity category ([2]; ref Chen 2016) was “vMost-DILI-Concern”, the “DILI Score (FDA) (1-8)” value ([3]; ref Chen 2011) was 8 and the “In vivo DILI” value ([4]; ref Aleo 2019) was “+VE”.
In the case of carboplatin, the “Partition Hybrid HRM Score” value ([5]; In vitro Assay, ref Aleo 2019) is listed as “-VE”, the “Ro2 Hybrid HRM Score” value ([5]; In vitro Assay, ref Aleo 2019) is listed as “-VE” and the “DILI +VE (5-8), DILI -VE (-4)” value ([2]; ref Chen 2016) is listed as “+VE”. For the same compound, the DILI severity category ([2]; ref Chen 2016) was “vLess-DILI-Concern”, the “DILI Score (FDA) (1-8)” value ([3]; ref Chen 2011) was 3 and the “In vivo DILI” value ([4]; ref Aleo 2019) was “+VE”.
